Experimental data published in ChEMBL document CHEMBL4130568, “Benzoxaboroles as Efficient Inhibitors of the β-Carbonic Anhydrases from Pathogenic Fungi: Activity and Modeling Study” (ACS Med Chem Lett, 2017).

Columns and labels:
[1] = target: Carbonic anhydrase 2 (Homo sapiens, UniProt P00918); test: Inhibition of human carbonic anhydrase-2 incubated for 15 mins prior to testing by stopped flow CO2 hydrase assay
[2] = Inhibition of Malassezia globosa beta-carbonic anhydrase incubated for 15 mins prior to testing by stopped flow CO2 hydrase assay
[3] = target: T1, Carbonic anhydrase 2 (Cryptococcus neoformans, UniProt Q3I4V7); test: Inhibition of Cryptococcus neoformans Can2 incubated for 15 mins prior to testing by stopped flow CO2 hydrase assay
T1 sequence (Q3I4V7 whole entry): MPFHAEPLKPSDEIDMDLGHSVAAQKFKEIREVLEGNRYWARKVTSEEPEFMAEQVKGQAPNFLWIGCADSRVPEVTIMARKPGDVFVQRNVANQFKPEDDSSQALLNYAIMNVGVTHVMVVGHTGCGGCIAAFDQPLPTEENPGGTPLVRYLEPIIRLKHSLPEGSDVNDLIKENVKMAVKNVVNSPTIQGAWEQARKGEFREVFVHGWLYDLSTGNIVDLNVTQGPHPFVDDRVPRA

[4] = target: T2, Carbonic anhydrase (Candida glabrata CBS 138, UniProt Q6FTL6); test: Inhibition of Candida glabrata Nce103 incubated for 15 mins prior to testing by stopped flow CO2 hydrase assay; parameters: species or system Nakaseomyces glabratus
T2 sequence (Q6FTL6 whole entry): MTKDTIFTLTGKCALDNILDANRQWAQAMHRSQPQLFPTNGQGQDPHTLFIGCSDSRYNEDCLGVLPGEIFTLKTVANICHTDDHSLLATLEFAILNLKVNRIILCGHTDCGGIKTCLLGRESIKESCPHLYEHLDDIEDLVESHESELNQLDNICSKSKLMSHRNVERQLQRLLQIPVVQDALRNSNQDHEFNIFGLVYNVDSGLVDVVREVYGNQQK

[5] = target: Carbonic anhydrase 1 (Homo sapiens, UniProt P00915); test: Inhibition of human carbonic anhydrase-1 incubated for 15 mins prior to testing by stopped flow CO2 hydrase assay
Sequence of Carbonic anhydrase 1 (P00915 whole entry): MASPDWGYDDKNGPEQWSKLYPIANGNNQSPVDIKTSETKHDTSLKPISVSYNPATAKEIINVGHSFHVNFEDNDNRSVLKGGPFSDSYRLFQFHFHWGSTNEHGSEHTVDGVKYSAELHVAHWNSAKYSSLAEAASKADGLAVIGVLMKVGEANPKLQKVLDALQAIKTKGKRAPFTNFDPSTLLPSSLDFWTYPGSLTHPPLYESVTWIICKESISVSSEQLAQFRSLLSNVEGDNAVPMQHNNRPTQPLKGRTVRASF

Structure (SMILES)	Ki [1]	Ki [2]	Ki [3]	Ki [4]	Ki [5]
O=C(Nc1ccccc1)Nc1ccc2c(c1)B(O)OC2	730 nM	63700 nM	81 nM	86 nM	654 nM
O=C(NCc1ccco1)Nc1ccc2c(c1)B(O)OC2	–	55600 nM	283 nM	96 nM	–
OB1OCc2ccc(NC(=S)Nc3ccccc3)cc21	1620 nM	21300 nM	198 nM	97 nM	532 nM
OB1OCc2ccc(NC(=S)NCCc3ccccc3)cc21	–	22500 nM	676 nM	467 nM	–
OB1OCc2ccc(NC(=S)Nc3ccc4ccccc4c3)cc21	–	30600 nM	573 nM	339 nM	–
OB1OCc2ccc(NC(=S)Nc3ccc(F)cc3)cc21	1500 nM	30100 nM	86 nM	86 nM	355 nM
O=C(Nc1ccc(C(F)(F)F)cc1)Nc1ccc2c(c1)B(O)OC2	456 nM	73600 nM	84 nM	96 nM	487 nM
O=[N+]([O-])c1ccc(NC(=S)Nc2ccc3c(c2)B(O)OC3)cc1	> 10000 nM	8680 nM	79 nM	96 nM	385 nM
Cc1cc(Cl)cc(CNC(=O)Nc2ccc3c(c2)B(O)OC3)c1	–	86800 nM	400 nM	79 nM	–
CC(=O)c1ccc(NC(=O)Nc2ccc3c(c2)B(O)OC3)cc1	–	62200 nM	65 nM	203 nM	–
OB1OCc2cc(F)ccc21 [TAVABOROLE]	462 nM	99000 nM	89 nM	72 nM	2020 nM
O=C(Nc1ccc2c(c1)B(O)OC2)Nc1c(Cl)cc(Cl)cc1Cl	–	98600 nM	73 nM	81 nM	–
OB1OCc2ccccc21 [BENZOXABOROLE]	–	109000 nM	174 nM	260 nM	–
O=[N+]([O-])c1ccc2c(c1)B(O)OC2	504 nM	91300 nM	88 nM	89 nM	6350 nM
O=C(NCc1ccccc1)Nc1ccc2c(c1)B(O)OC2	439 nM	58200 nM	602 nM	201 nM	557 nM
O=C(Nc1ccc(Cl)cc1)Nc1ccc2c(c1)B(O)OC2	–	77900 nM	92 nM	81 nM	–
COc1ccc(NC(=S)Nc2ccc3c(c2)B(O)OC3)cc1	–	28800 nM	89 nM	86 nM	–
O=C(Nc1ccc(F)cc1)Nc1ccc2c(c1)B(O)OC2	480 nM	76200 nM	78 nM	75 nM	235 nM
OB1OCc2ccc(NC(=S)NCc3ccco3)cc21	–	6100 nM	236 nM	229 nM	–
Cc1ccc(NC(=S)Nc2ccc3c(c2)B(O)OC3)cc1	–	24900 nM	181 nM	89 nM	–
Nc1ccc2c(c1)B(O)OC2	590 nM	44600 nM	93 nM	244 nM	9430 nM
OB1OCc2ccc(NC(=S)Nc3ccc(C(F)(F)F)cc3)cc21	1840 nM	49800 nM	275 nM	112 nM	417 nM
